Data set [1] in a line: Initial formulation attempts with common solvents and excipients: crystal formation upon storage. Format: physicochemical. The note with it: common pharmaceutically acceptable solvents and excipients. An excerpt: Accordingly, further development was needed to arrive at a stable topical formulation where crystal formation of 6-ethoxy-7-methoxy-2-(2-methylsulfanylphenyl)-3,1-benzoxazin-4-one can be avoided.

Data set [2] is described as follows: Solubility of the active in water and organic solvents (statement). The format is physicochemical. From the text:
However, such organic solvents are unsuitable for use in topical formulations for treatment of skin disease.

Structures are written as SMILES.

For `CCOc1cc2c(=O)oc(-c3ccccc3SC)nc2cc1OC` [6-Ethoxy-7-methoxy-2-(2-methylsulfanylphenyl)-3,1-benzoxazin-4-one], the “Crystal formation upon storage of the formulation” value in data set [1] was “form needle shaped crystals upon storage of the formulation”. Also, the “Solubility in organic solvents” value in data set [2] (various organic solvents) is “can be dissolved in various organic solvents”. For the same compound, the Solubility in water result in data set [2] (water) was “low solubility in water”.

For the origin of these results see patent US20240180915A1, “OIL-IN-WATER EMULSION OF 6-ETHOXY-7-METHOXY-2-(2-[…])-3,L-BENZOXAZIN-4-ONE” (SIXERA PHARMA AB, priority 2021, published 2024).
